Results published in ChEMBL document CHEMBL5649169 (ChemMedChem, 2018).

What was measured:
[1] = target: Nucleolar MIF4G domain-containing protein 1 (Homo sapiens) (UniProt Q5C9Z4)
[2] = target: c-Myc-binding protein (Homo sapiens) (UniProt Q99417)
[3] = target: Acetyl-CoA carboxylase 2 (Homo sapiens) (UniProt O00763)
[4] = target: RNA-binding protein 14 (Homo sapiens) (UniProt Q96PK6)
[5] = target: Protein CIP2A (Homo sapiens) (UniProt Q8TCG1)
[6] = target: Peptidyl-prolyl cis-trans isomerase FKBP3 (Homo sapiens) (UniProt Q00688)
[7] = target: Oxysterol-binding protein-related protein 3 (Homo sapiens) (UniProt Q9H4L5)
[8] = target: Ubiquitin carboxyl-terminal hydrolase 39 (Homo sapiens) (UniProt Q53GS9)
[9] = target: Microfibrillar-associated protein 1 (Homo sapiens) (UniProt P55081)
[10] = target: Large subunit GTPase 1 homolog (Homo sapiens) (UniProt Q9H089)
[11] = target: Complex I assembly factor ACAD9, mitochondrial (Homo sapiens) (UniProt Q9H845)
[12] = target: Ribosome biogenesis protein WDR12 (Homo sapiens) (UniProt Q9GZL7)
[13] = target: Hydroxyacyl-coenzyme A dehydrogenase, mitochondrial (Homo sapiens) (UniProt Q16836)
[14] = target: Phenylalanine--tRNA ligase beta subunit (Homo sapiens) (UniProt Q9NSD9)
[15] = target: Cytoplasmic FMR1-interacting protein 2 (Homo sapiens) (UniProt Q96F07)
[16] = target: Glucocorticoid receptor (Homo sapiens) (UniProt P04150)
[17] = target: Phosphatidylinositol 4,5-bisphosphate 3-kinase catalytic subunit beta isoform (Homo sapiens) (UniProt P42338)
[18] = target: Pyruvate dehydrogenase protein X component, mitochondrial (Homo sapiens) (UniProt O00330)
[19] = target: CCAAT/enhancer-binding protein zeta (Homo sapiens) (UniProt Q03701)
[20] = target: Signal recognition particle 19 kDa protein (Homo sapiens) (UniProt P09132)
[21] = target: Nascent polypeptide-associated complex subunit alpha (Homo sapiens) (UniProt Q13765)
[22] = target: Electrogenic aspartate/glutamate antiporter SLC25A13, mitochondrial (Homo sapiens) (UniProt Q9UJS0)
[23] = target: Peroxisomal biogenesis factor 3 (Homo sapiens) (UniProt P56589)
[24] = target: Small ribosomal subunit protein eS1 (Homo sapiens) (UniProt P61247)
[25] = target: Syndecan-2 (Homo sapiens) (UniProt P34741)
[26] = target: Rapamycin-insensitive companion of mTOR (Homo sapiens) (UniProt Q6R327)
[27] = target: Sorting nexin-9 (Homo sapiens) (UniProt Q9Y5X1)
[28] = target: Malate dehydrogenase, cytoplasmic (Homo sapiens) (UniProt P40925)
[29] = target: DnaJ homolog subfamily C member 13 (Homo sapiens) (UniProt O75165)
[30] = target: Pumilio homolog 2 (Homo sapiens) (UniProt Q8TB72)
[31] = target: YTH domain-containing family protein 2 (Homo sapiens) (UniProt Q9Y5A9)
[32] = target: eIF5-mimic protein 1 (Homo sapiens) (UniProt Q9Y6E2)
[33] = target: Secretory carrier-associated membrane protein 2 (Homo sapiens) (UniProt O15127)
[34] = target: AP-1 complex subunit sigma-1A (Homo sapiens) (UniProt P61966)
[35] = target: NUAK family SNF1-like kinase 2 (Homo sapiens) (UniProt Q9H093)
[36] = target: Y-box-binding protein 3 (Homo sapiens) (UniProt P16989)
Matrin-3 (Homo sapiens) = Matrin-3 (Homo sapiens) (UniProt P43243)
[37] = target: Bone marrow stromal antigen 2 (Homo sapiens) (UniProt Q10589)
[38] = target: Vacuole membrane protein 1 (Homo sapiens) (UniProt Q96GC9)
[39] = target: Very-long-chain (3R)-3-hydroxyacyl-CoA dehydratase 3 (Homo sapiens) (UniProt Q9P035)
[40] = target: La-related protein 1 (Homo sapiens) (UniProt Q6PKG0)
[41] = target: Methylcrotonoyl-CoA carboxylase beta chain, mitochondrial (Homo sapiens) (UniProt Q9HCC0)
[42] = target: Small ribosomal subunit protein eS28 (Homo sapiens) (UniProt P62857)
[43] = target: Probable rRNA-processing protein EBP2 (Homo sapiens) (UniProt Q99848)
[44] = target: N-acetylneuraminate-9-phosphate synthase (Homo sapiens) (UniProt Q9NR45)
Note: assay method not described here.

Microfibrillar-associated protein 1 (Homo sapiens), sequence (P55081 whole entry): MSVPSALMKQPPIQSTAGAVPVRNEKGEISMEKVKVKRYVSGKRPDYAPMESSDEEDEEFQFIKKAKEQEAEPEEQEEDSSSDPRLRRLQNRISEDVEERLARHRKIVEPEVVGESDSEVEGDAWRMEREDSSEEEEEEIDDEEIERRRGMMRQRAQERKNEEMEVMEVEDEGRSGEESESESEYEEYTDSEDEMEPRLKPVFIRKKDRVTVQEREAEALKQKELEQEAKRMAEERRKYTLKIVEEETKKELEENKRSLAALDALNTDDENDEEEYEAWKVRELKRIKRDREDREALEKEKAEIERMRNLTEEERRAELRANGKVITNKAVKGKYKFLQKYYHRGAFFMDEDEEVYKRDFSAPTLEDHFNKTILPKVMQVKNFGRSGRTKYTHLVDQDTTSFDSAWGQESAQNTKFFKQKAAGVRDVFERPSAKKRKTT
CCAAT/enhancer-binding protein zeta (Homo sapiens), sequence (Q03701 whole entry): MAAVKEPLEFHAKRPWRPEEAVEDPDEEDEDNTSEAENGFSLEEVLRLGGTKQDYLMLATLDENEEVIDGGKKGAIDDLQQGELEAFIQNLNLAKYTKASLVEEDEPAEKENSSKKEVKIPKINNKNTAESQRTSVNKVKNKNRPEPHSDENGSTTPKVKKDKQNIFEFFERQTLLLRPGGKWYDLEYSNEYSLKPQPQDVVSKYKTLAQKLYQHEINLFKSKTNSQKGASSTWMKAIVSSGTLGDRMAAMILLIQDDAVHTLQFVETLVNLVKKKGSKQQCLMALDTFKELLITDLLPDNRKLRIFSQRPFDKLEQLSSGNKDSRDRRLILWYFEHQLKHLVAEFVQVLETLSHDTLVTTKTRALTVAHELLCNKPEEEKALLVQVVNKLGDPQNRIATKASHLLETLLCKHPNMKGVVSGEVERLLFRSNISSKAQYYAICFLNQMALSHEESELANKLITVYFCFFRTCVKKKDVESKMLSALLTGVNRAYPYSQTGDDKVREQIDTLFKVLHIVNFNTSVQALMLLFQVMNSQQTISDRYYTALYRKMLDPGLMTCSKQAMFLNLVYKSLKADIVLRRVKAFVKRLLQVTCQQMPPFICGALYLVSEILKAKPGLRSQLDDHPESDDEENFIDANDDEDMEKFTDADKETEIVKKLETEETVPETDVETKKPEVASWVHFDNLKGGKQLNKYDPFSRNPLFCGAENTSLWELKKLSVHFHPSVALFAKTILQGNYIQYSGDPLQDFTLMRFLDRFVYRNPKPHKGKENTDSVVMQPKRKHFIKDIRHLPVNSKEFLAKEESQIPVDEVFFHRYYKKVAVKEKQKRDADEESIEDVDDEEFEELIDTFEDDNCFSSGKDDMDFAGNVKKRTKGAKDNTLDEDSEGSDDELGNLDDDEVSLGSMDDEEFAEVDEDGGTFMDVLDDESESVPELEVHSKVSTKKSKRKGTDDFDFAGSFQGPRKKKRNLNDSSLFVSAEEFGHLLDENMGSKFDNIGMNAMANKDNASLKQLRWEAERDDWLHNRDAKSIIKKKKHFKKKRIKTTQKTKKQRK
Acetyl-CoA carboxylase 2 (Homo sapiens), sequence (O00763 whole entry, looked up): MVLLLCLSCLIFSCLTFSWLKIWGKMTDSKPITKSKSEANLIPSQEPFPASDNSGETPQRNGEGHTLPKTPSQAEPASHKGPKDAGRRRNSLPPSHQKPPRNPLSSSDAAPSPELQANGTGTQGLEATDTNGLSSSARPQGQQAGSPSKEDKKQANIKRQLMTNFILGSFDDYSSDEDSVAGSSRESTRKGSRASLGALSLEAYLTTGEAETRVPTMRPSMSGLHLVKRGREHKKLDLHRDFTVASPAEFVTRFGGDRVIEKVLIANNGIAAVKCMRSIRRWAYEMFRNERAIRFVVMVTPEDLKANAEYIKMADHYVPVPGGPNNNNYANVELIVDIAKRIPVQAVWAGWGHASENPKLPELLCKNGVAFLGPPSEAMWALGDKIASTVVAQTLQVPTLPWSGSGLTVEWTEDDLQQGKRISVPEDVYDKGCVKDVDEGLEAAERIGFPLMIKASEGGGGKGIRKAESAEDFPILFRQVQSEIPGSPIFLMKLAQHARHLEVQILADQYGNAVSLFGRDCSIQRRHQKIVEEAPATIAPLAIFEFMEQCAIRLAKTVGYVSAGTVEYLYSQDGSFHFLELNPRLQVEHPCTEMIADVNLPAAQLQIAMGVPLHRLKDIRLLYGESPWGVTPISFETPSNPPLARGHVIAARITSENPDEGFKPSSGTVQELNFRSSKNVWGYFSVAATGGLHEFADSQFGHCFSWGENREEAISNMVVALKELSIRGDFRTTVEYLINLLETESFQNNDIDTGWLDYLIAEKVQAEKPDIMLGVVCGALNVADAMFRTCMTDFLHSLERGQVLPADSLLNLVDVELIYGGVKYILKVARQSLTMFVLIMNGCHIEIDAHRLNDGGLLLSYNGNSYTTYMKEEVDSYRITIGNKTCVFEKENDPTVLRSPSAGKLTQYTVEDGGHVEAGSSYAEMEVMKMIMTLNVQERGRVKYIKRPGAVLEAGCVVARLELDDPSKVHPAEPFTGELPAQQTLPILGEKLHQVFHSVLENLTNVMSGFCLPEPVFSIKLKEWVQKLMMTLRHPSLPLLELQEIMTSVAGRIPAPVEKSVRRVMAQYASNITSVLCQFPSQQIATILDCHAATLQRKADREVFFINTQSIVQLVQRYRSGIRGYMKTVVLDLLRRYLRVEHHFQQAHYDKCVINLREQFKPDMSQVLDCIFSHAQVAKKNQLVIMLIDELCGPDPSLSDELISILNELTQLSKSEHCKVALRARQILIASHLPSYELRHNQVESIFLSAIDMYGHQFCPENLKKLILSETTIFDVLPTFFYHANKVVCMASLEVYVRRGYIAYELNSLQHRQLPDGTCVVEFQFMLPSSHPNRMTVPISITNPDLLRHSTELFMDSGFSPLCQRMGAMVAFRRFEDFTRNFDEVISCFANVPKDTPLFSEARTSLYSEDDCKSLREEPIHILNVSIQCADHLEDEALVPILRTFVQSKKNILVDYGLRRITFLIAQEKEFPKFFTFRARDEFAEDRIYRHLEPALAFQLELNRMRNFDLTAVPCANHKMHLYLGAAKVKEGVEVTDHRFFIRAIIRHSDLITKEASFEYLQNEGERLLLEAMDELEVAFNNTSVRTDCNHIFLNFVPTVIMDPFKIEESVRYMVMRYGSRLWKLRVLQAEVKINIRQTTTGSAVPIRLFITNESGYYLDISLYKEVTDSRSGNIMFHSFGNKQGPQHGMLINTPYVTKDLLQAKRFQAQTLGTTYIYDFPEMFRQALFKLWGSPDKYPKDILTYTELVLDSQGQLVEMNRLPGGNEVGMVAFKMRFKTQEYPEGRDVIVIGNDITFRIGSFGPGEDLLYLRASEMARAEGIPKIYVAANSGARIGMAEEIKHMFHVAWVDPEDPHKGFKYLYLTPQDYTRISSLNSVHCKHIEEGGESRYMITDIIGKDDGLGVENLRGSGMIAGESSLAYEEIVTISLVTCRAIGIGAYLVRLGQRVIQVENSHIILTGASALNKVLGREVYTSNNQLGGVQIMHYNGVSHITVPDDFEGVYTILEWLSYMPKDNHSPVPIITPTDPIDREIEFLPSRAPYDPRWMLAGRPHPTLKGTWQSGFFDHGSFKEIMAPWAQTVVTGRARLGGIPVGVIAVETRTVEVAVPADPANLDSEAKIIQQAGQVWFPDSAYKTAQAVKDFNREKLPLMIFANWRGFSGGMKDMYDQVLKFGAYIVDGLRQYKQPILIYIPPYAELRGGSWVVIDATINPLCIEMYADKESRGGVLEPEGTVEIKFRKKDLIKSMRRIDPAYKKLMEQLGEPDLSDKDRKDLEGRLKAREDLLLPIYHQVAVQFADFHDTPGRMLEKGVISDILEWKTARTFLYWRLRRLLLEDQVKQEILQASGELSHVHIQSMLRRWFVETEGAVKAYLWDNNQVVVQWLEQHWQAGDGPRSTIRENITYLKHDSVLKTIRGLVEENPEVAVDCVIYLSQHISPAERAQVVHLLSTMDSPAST
Peroxisomal biogenesis factor 3 (Homo sapiens), sequence (P56589 whole entry): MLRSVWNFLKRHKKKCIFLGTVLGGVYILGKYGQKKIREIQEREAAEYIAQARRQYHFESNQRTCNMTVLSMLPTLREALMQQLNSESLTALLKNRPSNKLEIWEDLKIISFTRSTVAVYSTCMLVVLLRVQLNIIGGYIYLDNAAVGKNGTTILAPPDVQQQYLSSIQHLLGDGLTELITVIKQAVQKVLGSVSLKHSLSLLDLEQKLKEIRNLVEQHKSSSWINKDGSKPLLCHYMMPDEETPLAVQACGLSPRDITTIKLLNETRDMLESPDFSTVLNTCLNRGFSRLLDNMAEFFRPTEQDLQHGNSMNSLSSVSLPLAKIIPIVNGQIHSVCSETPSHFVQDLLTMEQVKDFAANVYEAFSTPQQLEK
Glucocorticoid receptor (Homo sapiens), sequence (P04150 whole entry, canonical isoform): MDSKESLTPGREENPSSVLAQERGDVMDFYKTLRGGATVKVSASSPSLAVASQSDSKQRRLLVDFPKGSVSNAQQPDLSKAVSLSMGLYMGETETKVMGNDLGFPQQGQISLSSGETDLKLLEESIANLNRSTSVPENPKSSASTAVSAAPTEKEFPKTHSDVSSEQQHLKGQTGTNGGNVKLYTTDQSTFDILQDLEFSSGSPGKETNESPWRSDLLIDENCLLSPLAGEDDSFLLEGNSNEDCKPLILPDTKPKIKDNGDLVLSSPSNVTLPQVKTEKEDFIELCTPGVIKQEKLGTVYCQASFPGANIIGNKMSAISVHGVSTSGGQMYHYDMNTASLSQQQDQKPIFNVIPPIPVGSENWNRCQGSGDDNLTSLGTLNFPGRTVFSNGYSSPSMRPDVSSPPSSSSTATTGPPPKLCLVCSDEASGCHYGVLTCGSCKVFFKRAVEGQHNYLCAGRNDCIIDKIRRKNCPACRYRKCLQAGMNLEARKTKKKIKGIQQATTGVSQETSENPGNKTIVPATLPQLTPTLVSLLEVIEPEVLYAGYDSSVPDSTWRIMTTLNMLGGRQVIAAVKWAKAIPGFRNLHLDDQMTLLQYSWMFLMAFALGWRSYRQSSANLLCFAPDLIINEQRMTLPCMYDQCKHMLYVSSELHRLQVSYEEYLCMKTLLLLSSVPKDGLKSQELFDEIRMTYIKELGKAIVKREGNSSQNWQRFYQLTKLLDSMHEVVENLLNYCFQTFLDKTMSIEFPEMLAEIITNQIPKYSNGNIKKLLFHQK

With `Cc1ccc(C(=O)Nc2cccc(C(F)(F)F)c2)cc1Nc1nc(-c2cccnc2)nc2c1cnn2C` the ED50 [1] was 3.22 nM, the ED50 [2] was 249 µM and the ED50 [3] was 175 nM. The ED50 [4] was 12.4 µM, the ED50 [5] was 12.6 µM and the ED50 [6] was 12 µM. It also gave an ED50 [7] of 946 nM, an ED50 [8] of 95.8 µM and an ED50 [9] of 55.2 µM. For the same compound, the ED50 [10] was 0.521 nM, the ED50 [11] was 42.8 µM and the ED50 [12] was 1.21 nM. It also gave an ED50 [13] of 6.25 nM, an ED50 [14] of 97.1 nM and an ED50 [15] of 6.95 µM. It also gave an ED50 [16] of 53.3 µM, an ED50 [17] of 1.63 nM and an ED50 [18] of 48.2 nM. It also gave an ED50 [19] of 3.24 µM, an ED50 [20] of 10.1 µM and an ED50 [21] of 90.1 nM. The ED50 [22] was 1180 nM, the ED50 [23] was 11.5 nM and the ED50 [24] was 2450 nM. For the same compound, the ED50 [25] was 13.6 µM, the ED50 [26] was 10.1 µM and the ED50 [27] was 494 nM. The ED50 [28] was 91.4 µM, the ED50 [29] was 10.3 µM and the ED50 (Homo sapiens) was 0.533 nM. The ED50 [30] was 526 nM, the ED50 [31] was 68.5 nM and the ED50 [32] was 16.7 nM. It also gave an ED50 [33] of 6.77 µM, an ED50 [34] of 163 nM and an ED50 [35] of 1310 nM. For the same compound, the ED50 [36] was 15.4 µM.
For `Cc1ccc(C(=O)Nc2cccc(C(F)(F)F)c2)cc1Nc1nc(-c2cccnc2)nc2nn(C)cc12`, the ED50 (Matrin-3 (Homo sapiens)) was 22.7 nM, the ED50 [37] was 1.25 mM and the ED50 [38] was 1930 nM. For the same compound, the ED50 [39] was 17.3 nM, the ED50 [40] was 1690 nM and the ED50 [41] was 102 nM. The ED50 [42] was 59.5 nM, the ED50 [43] was 43.2 nM and the ED50 [44] was 90 nM.
